# Experimental data reported in patent US11034702B2, “Thienoisoquinolines and their derivatives for the treatment of cancer” (VALORBEC, SOCIÉTÉ EN COMMANDITE, priority 2016, dated 2021).
# Assays:
# Type in all cases: cell-based
# [1] = test system: BT549 (breast ductal carcinoma) cells; experiment: IC50 (viability) in BT549 cells; details: Homo sapiens, BT-549
# Experimental: (§1) 19 variants with different structural modifications have been made. […] In particular, it is shown that C75 causes death in multiple cancer cells with IC50 values in the 100 nM range, including breast cancers (MCF7, BT549), lung cancer (A549), colorectal cancer (HCT116) in addition to HeLa cells (cervical cancer).
# [2] = test system: MCF-10A (mammary gland fibrocystic disease) non-cancer cells; experiment: IC50 (viability) in MCF-10A non-cancer cells; details: Homo sapiens, MCF10A non-cancer cells
# Experimental: as §1
# [3] = test system: HCT116 spheroids; experiment: HCT116 multicellular tumour spheroids
# Experimental: FIG. 5A) is a series of images of HeLa multicellular tumor spheroids (spheroids) treated with control (500 nM C87), empty nanoparticles, 500 nM C75 and 250 nM C75-loaded nanoparticles over 3 days. […] The scale bar for all images is 100 μm. FIG. 5B) is a series images of HeLa spheroids after three days of treatment with control (500 nM C87) or 500 nM C75. The spheroids were stained for fluorescein diacetate (to detect live cells) and propidium iodide (to detect dead cells). […] The scale bar for all images is 100 μm. FIG. 5C) is a series of images of HCT116 spheroids treated with control (1 μM C87), 500 nM C75, 1 μM C75 and 500 nM C75-loaded nanoparticles over 5 days. […] The borders of the spheroids treated with 1 μM C75 or with 500 nM C75-loaded nanoparticles became highly irregular, indicative of loss of spheroid integrity. FIG. 5D) is a series images of HCT116 spheroids after six days of treatment with control (1 μM C87) or 1 μM C75. The spheroids were stained for fluorescein diacetate (live cells) and propidium iodide (dead cells). […] FIG. 5E) is a line graph showing the growth in surface area (%) of HCT116 spheroids treated with control (1 μM C87), 500 nM C75 and 1 μM C75 after six days. FIG. 5F) is a series of images of A549 spheroids treated with control (750 nM C87), 500 nM C75, 1 μM C75 and 500 nM C75-loaded nanoparticles over 5 days. […] The scale bar for all images is 100 μm. […]
structure (smiles),measurement,setting,value
COc1ccc(S(=O)(=O)N2Cc3ccccc3-c3sc(Br)cc32)cc1 [Compound C75],IC50,[1],0.158 µM
same,IC50,[2],0.309 µM
same,effect on growth of HCT116 spheroids,"[3]; 500 nM or 1 μM C75, 500 nM C75-loaded nanoparticles, over 5 days",regress the growth
same,live/dead staining of spheroids (fluorescein diacetate / propidium iodide),"[3]; HCT116 spheroids, 1 μM, six days","much smaller after C75-treatment, but still contained live cells"
